According to BigSolDB 2.1:
Values joined by “and” are separate entries in the source; they are usually repeats but may differ in a detail not shown here. Equal values may be shown once.

C[C@@H](O[C@H]1OCCN(Cc2n[nH]c(=O)[nH]2)[C@H]1c1ccc(F)cc1)c1cc(C(F)(F)F)cc(C(F)(F)F)c1
Conditions	solubility (mole fraction)
in acetone, 284.75 K	0.00512
in acetone, 289.85 K	0.00582
in acetone, 291.45 K	0.00601
in acetone, 295.95 K	0.00663
in acetone, 299.85 K	0.00719
in acetone, 301.45 K	0.00741
in acetone, 303.75 K	0.00778
in acetone, 305.65 K	0.00808
in acetone, 307.55 K	0.0084
in acetone, 313.85 K	0.00955
in acetone, 317.75 K	0.0104
in acetone, 324.65 K	0.0118
in acetonitrile, 285.55 K	0.000172
in acetonitrile, 289.55 K	0.000196
in acetonitrile, 293.45 K	0.000235
in acetonitrile, 295.95 K	0.000262
in acetonitrile, 302.85 K	0.000344
in acetonitrile, 304.35 K	0.000368
in acetonitrile, 306.55 K	0.000398
in acetonitrile, 309.55 K	0.000444
in acetonitrile, 312.35 K	0.000509
in acetonitrile, 318.85 K	0.00063
in acetonitrile, 320.85 K	0.00067
in acetonitrile, 327.95 K	0.000853
in ethanol, 283.55 K	0.00166
in ethanol, 290.85 K	0.00209
in ethanol, 293.55 K	0.00223
in ethanol, 295.95 K	0.0024
in ethanol, 298.35 K	0.00251
in ethanol, 301.55 K	0.00279
in ethanol, 303.85 K	0.00294
in ethanol, 306.25 K	0.00316
in ethanol, 308.25 K	0.00333
in ethanol, 315.25 K	0.00396
in ethanol, 318.45 K	0.00432
in ethanol, 324.85 K	0.00505
in methanol, 284.45 K	0.00314
in methanol, 288.75 K	0.00343
in methanol, 292.15 K	0.00374
in methanol, 296.35 K	0.00405
in methanol, 298.45 K	0.00422
in methanol, 300.75 K	0.00445 and 0.00463
in methanol, 302.65 K	0.00495
in methanol, 306.65 K	0.00513
in methanol, 308.45 K	0.00568
in methanol, 313.65 K	0.00619
in methanol, 318.25 K	0.00676
in n-butanol, 285.45 K	0.00115
in n-butanol, 288.85 K	0.00131
in n-butanol, 293.25 K	0.00154
in n-butanol, 295.45 K	0.00164
in n-butanol, 298.15 K	0.00177
in n-butanol, 301.75 K	0.002
in n-butanol, 303.75 K	0.00219
in n-butanol, 306.35 K	0.00235
in n-butanol, 308.85 K	0.00258
in n-butanol, 313.45 K	0.00292
in n-butanol, 317.45 K	0.00335
in n-butanol, 322.25 K	0.00392
in n-propanol, 283.75 K	0.00127
in n-propanol, 290.75 K	0.00162
in n-propanol, 294.75 K	0.00187
in n-propanol, 296.95 K	0.00198
in n-propanol, 298.55 K	0.00207
in n-propanol, 300.15 K	0.00215
in n-propanol, 303.05 K	0.00241
in n-propanol, 306.25 K	0.00262
in n-propanol, 308.75 K	0.00285
in n-propanol, 314.35 K	0.00331
in n-propanol, 318.35 K	0.0037
in n-propanol, 325.35 K	0.00463
